From publication PMC6874179, “Development of Macrocycle Kinase Inhibitors for ALK2 Using Fibrodysplasia Ossificans Progressiva‐Derived Endothelial Cells” (JBMR Plus, 2019)

Tests used:
Assay in all cases: Proqinase Kinase profiling
Format in all cases: biochemical
Conditions in all cases: read-out: % inhibition at 100nM
CDK8_cyclinC = biological target: T1, CDK8_cyclinC (Homo sapiens, UniProt P49336)
T1 construct: purchased DiscoverX

PRKX = biological target: T2, PRKX (Homo sapiens, UniProt P51817)
T2 construct: purchased DiscoverX

CSNK1G1 = biological target: T3, CSNK1G1 (Homo sapiens, UniProt Q9HCP0)
T3 construct: purchased DiscoverX

SLK = biological target: T4, SLK (Homo sapiens, UniProt Q9H2G2)
T4 construct: purchased DiscoverX

DYRK2 = biological target: T5, DYRK2 (Homo sapiens, UniProt Q92630)
T5 construct: purchased DiscoverX

MAP2K2 = biological target: T6, MAP2K2 (Homo sapiens, UniProt P36507)
T6 construct: purchased DiscoverX
T6 sequence (P36507 whole entry): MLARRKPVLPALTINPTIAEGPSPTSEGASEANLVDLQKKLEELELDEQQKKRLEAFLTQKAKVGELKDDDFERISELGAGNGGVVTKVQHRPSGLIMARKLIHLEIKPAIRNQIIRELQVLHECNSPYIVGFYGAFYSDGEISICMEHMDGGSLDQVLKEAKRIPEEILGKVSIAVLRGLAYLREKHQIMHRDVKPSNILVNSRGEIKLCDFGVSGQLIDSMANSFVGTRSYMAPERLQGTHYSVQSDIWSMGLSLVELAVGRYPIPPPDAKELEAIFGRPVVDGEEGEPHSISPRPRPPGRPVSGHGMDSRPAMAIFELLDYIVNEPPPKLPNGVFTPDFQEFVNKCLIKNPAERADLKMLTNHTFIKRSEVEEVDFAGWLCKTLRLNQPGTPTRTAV

DDR2 = biological target: T7, DDR2 (Homo sapiens, UniProt Q16832)
T7 construct: purchased DiscoverX

FYN = biological target: T8, FYN (Homo sapiens, UniProt P06241)
T8 construct: purchased DiscoverX

STK17A = biological target: T9, STK17A (Homo sapiens, UniProt Q9UEE5)
T9 construct: purchased DiscoverX

PIM2 = biological target: T10, PIM2 (Homo sapiens, UniProt Q9P1W9)
T10 construct: purchased DiscoverX

ITK = biological target: T11, ITK (Homo sapiens, UniProt Q08881)
T11 construct: purchased DiscoverX

PDGFRB = biological target: T12, PDGFRB (Homo sapiens, UniProt P09619)
T12 construct: purchased DiscoverX

CLK2 = biological target: T13, CLK2 (Homo sapiens, UniProt P49760)
T13 construct: purchased DiscoverX

GSK3A = biological target: T14, GSK3A (Homo sapiens, UniProt P49840)
T14 construct: purchased DiscoverX

GCK = biological target: T15, GCK (Homo sapiens, UniProt Q12851)
T15 construct: purchased DiscoverX

MAPK3 = biological target: T16, MAPK3 (Homo sapiens, UniProt P27361)
T16 construct: purchased DiscoverX

ROCK1 = biological target: T17, ROCK1 (Homo sapiens, UniProt Q13464)
T17 construct: purchased DiscoverX

CDK2_cyclinA2 = biological target: T18, CDK2_cyclinA2 (Homo sapiens, UniProt P24941)
T18 construct: purchased DiscoverX

TEC = biological target: T19, TEC (Homo sapiens, UniProt P42680)
T19 construct: purchased DiscoverX

MET_Y1230A = biological target: T20, MET_Y1230A (Homo sapiens, UniProt P08581, Y1230A)
T20 construct: purchased DiscoverX

SIK2 = biological target: T21, SIK2 (Homo sapiens, UniProt Q9H0K1)
T21 construct: purchased DiscoverX

MARK3 = biological target: T22, MARK3 (Homo sapiens, UniProt P27448)
T22 construct: purchased DiscoverX

EPHA5 = biological target: T23, EPHA5 (Homo sapiens, UniProt P54756)
T23 construct: purchased DiscoverX

SYK = biological target: T24, SYK (Homo sapiens, UniProt P43405)
T24 construct: purchased DiscoverX

PHKG1 = biological target: T25, PHKG1 (Homo sapiens, UniProt Q16816)
T25 construct: purchased DiscoverX

MYLK2 = biological target: T26, MYLK2 (Homo sapiens, UniProt Q9H1R3)
T26 construct: purchased DiscoverX

CDC42BPA = biological target: T27, CDC42BPA (Homo sapiens, UniProt Q5VT25)
T27 construct: purchased DiscoverX

DYRK1A = biological target: T28, DYRK1A (Homo sapiens, UniProt Q13627)
T28 construct: purchased DiscoverX

EGFR_L861Q = biological target: T29, EGFR_L861Q (Homo sapiens, UniProt P00533, L861Q)
T29 construct: purchased DiscoverX

PRKCB1_I = biological target: T30, PRKCB1_I (Homo sapiens, UniProt P05771)
T30 construct: purchased DiscoverX

PBK = biological target: T31, PBK (Homo sapiens, UniProt Q96KB5)
T31 construct: purchased DiscoverX
T31 sequence (Q96KB5 whole entry): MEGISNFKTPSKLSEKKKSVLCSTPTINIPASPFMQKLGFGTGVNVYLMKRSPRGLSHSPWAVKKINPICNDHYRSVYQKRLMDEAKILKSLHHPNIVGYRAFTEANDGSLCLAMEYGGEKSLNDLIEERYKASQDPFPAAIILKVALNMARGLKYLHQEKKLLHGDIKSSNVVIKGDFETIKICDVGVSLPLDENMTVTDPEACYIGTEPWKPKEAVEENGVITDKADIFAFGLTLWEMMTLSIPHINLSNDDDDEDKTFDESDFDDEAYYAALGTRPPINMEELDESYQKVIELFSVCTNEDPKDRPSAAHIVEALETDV

EPHA4 = biological target: T32, EPHA4 (Homo sapiens, UniProt P54764)
T32 construct: purchased DiscoverX

NUAK2 = biological target: T33, NUAK2 (Homo sapiens, UniProt Q9H093)
T33 construct: purchased DiscoverX

TYRO3 = biological target: T34, TYRO3 (Homo sapiens, UniProt Q06418)
T34 construct: purchased DiscoverX

EGFR_L747-E749del_A750P = biological target: T35, EGFR_L747-E749del_A750P (Homo sapiens, UniProt P00533, A750P/DEL747-749)
T35 construct: purchased DiscoverX

FLT4 = biological target: T36, FLT4 (Homo sapiens, UniProt P35916)
T36 construct: purchased DiscoverX
T36 sequence (P35916 25-1363): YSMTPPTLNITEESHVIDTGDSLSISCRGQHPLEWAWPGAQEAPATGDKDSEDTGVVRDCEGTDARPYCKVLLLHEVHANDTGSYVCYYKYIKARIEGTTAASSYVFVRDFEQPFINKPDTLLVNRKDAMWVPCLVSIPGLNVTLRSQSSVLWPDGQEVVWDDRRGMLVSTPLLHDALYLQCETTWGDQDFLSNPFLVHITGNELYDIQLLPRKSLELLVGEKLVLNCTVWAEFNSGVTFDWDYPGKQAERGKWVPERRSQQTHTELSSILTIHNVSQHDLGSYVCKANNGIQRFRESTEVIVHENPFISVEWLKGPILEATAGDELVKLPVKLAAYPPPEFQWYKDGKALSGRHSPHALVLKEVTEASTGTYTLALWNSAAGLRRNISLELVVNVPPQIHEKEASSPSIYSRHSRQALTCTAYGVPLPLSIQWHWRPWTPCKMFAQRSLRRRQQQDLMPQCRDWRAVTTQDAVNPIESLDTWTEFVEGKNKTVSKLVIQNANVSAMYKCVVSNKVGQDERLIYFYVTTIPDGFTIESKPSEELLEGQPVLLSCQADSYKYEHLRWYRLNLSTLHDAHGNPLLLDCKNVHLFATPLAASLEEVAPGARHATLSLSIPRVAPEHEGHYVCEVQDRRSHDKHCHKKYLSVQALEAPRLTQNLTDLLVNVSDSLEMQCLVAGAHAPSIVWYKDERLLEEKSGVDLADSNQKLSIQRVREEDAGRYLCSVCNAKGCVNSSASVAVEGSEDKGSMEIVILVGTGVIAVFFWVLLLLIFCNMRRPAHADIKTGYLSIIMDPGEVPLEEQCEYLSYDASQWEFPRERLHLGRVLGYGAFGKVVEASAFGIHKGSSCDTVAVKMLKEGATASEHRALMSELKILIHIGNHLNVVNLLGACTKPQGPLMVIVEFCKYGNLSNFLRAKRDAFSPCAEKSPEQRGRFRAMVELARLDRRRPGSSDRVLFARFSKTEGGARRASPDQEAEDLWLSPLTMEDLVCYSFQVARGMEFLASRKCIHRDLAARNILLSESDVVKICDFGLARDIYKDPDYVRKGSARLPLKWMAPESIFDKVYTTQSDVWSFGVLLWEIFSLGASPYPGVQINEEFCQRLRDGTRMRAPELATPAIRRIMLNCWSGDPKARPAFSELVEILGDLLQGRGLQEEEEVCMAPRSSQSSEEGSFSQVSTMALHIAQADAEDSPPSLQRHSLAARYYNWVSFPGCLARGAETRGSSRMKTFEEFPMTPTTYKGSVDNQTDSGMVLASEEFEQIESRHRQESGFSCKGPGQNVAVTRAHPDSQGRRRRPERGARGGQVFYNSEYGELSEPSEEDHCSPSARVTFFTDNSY

PRKCI = biological target: T37, PRKCI (Homo sapiens, UniProt P41743)
T37 construct: purchased DiscoverX

EPHA7 = biological target: T38, EPHA7 (Homo sapiens, UniProt Q15375)
T38 construct: purchased DiscoverX
T38 sequence (Q15375 28-998): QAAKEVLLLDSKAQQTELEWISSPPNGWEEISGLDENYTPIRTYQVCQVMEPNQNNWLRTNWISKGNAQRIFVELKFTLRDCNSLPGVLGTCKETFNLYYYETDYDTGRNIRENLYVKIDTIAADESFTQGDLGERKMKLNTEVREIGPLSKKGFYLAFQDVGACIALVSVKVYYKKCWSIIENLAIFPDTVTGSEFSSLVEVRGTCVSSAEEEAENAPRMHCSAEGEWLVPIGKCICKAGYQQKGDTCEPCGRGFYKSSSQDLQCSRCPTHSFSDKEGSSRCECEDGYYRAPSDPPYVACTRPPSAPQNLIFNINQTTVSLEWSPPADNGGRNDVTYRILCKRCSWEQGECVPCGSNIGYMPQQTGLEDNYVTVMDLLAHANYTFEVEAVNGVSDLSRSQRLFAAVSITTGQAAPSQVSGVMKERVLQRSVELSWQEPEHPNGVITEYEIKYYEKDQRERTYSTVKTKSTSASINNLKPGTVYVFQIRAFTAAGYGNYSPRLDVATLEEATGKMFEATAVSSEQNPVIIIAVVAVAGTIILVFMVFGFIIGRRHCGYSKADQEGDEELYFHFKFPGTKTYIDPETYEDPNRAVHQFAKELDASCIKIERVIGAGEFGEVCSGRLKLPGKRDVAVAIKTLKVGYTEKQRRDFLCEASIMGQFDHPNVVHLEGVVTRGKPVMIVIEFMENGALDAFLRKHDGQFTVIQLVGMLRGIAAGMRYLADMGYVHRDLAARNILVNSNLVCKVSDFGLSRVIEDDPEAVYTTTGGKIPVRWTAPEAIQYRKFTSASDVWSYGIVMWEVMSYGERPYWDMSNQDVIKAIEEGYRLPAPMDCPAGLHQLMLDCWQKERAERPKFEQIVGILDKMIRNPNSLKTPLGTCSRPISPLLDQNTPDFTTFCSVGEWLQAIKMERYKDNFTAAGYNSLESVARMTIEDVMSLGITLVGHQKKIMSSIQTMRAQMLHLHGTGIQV

TNK2 = biological target: T39, TNK2 (Homo sapiens, UniProt Q07912)
T39 construct: purchased DiscoverX
T39 sequence (Q07912 whole entry): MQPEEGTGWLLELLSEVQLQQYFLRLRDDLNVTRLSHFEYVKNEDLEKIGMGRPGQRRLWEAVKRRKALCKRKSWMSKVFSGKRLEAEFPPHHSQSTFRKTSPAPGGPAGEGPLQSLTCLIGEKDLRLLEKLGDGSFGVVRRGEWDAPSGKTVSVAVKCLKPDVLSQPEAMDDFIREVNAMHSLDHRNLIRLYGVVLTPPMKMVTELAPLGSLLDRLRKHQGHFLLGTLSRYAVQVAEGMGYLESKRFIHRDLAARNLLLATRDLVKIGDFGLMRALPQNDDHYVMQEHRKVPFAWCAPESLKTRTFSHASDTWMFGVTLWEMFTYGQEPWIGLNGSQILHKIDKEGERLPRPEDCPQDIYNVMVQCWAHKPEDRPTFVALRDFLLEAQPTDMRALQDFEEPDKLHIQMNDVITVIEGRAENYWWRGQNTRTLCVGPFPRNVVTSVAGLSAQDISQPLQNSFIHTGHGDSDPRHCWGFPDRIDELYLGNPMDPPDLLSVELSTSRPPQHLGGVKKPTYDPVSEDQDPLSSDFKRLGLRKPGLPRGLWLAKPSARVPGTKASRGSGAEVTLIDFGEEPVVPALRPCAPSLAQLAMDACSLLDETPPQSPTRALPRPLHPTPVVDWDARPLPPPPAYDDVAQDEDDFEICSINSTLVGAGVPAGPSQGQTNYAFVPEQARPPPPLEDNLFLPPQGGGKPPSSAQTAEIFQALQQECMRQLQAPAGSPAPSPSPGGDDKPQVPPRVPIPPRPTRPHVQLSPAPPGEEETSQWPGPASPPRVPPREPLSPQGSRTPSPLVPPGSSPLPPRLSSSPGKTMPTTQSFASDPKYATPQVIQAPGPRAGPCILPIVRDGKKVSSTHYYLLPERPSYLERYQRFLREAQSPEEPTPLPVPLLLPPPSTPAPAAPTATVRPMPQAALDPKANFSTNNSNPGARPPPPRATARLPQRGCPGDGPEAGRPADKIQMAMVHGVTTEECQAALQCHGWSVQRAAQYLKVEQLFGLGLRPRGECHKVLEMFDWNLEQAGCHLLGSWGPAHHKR

TEK_Y1108F = biological target: T40, TEK_Y1108F (Homo sapiens, UniProt Q02763, Y1108F)
T40 construct: purchased DiscoverX

KIT_T670I = biological target: T41, KIT_T670I (Homo sapiens, UniProt P10721, T670I)
T41 construct: purchased DiscoverX
T41 sequence (P10721 26-976 T670I): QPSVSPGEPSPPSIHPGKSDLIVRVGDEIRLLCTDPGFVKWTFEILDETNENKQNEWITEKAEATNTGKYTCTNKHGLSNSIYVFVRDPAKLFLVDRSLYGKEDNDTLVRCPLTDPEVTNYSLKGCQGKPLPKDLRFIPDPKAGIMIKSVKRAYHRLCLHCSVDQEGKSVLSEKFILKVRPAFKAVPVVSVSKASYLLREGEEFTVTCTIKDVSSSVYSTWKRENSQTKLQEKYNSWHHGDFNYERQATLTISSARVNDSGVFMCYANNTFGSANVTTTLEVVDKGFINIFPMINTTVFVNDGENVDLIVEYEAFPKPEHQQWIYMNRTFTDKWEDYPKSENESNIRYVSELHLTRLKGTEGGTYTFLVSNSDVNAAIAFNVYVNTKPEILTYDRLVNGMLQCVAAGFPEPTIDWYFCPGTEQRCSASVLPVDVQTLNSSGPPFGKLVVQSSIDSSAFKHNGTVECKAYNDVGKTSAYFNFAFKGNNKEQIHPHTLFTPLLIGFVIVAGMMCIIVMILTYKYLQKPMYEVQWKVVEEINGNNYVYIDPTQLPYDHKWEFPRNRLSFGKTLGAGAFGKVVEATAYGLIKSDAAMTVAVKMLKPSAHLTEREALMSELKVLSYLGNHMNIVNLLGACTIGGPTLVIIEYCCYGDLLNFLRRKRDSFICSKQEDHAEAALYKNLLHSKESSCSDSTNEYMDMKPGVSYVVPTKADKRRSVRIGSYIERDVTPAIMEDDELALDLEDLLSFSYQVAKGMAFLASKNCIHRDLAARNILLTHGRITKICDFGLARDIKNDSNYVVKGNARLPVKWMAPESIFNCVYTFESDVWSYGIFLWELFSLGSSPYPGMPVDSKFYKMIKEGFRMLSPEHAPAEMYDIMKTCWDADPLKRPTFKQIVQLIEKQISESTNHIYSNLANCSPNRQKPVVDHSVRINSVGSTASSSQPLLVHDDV

MST1R = biological target: T42, MST1R (Homo sapiens, UniProt Q04912)
T42 construct: purchased DiscoverX

MAPKAPK3 = biological target: T43, MAPKAPK3 (Homo sapiens, UniProt Q16644)
T43 construct: purchased DiscoverX

Q: With `Clc1cc2cc(c1)-c1cnn3ccc(nc13)NCCOCCO2` [OD36] as the compound, how does the inhibition at 0.1 µM (CDK8_cyclinC) read?
A: 57%

Q: And the inhibition at 0.1 µM (PRKX)?
A: 17%

Q: What about the inhibition at 0.1 µM (CSNK1G1) of the same compound?
A: 1%

Q: What about the inhibition at 0.1 µM (SLK) of the same compound?
A: 13%

Q: And the inhibition at 0.1 µM (DYRK2)?
A: 2%

Q: What about the inhibition at 0.1 µM (MAP2K2) of the same compound?
A: -7%

Q: And the inhibition at 0.1 µM (DDR2)?
A: 59%

Q: What about the inhibition at 0.1 µM (FYN) of the same compound?
A: 59%

Q: What about the inhibition at 0.1 µM (STK17A) of the same compound?
A: 23%

Q: And the inhibition at 0.1 µM (PIM2)?
A: 17%

Q: And the inhibition at 0.1 µM (ITK)?
A: -6%

Q: And the inhibition at 0.1 µM (PDGFRB)?
A: 57%

Q: And the inhibition at 0.1 µM (CLK2)?
A: 10%

Q: What about the inhibition at 0.1 µM (GSK3A) of the same compound?
A: 6%

Q: What about the inhibition at 0.1 µM (GCK) of the same compound?
A: 35%

Q: What about the inhibition at 0.1 µM (MAPK3) of the same compound?
A: 12%

Q: What about the inhibition at 0.1 µM (ROCK1) of the same compound?
A: 1%

Q: And the inhibition at 0.1 µM (CDK2_cyclinA2)?
A: 4%

Q: What about the inhibition at 0.1 µM (TEC) of the same compound?
A: 6%

Q: What about the inhibition at 0.1 µM (MET_Y1230A) of the same compound?
A: -3%

Q: And the inhibition at 0.1 µM (SIK2)?
A: 94%

Q: And the inhibition at 0.1 µM (MARK3)?
A: 8%

Q: And the inhibition at 0.1 µM (EPHA5)?
A: 10%

Q: What about the inhibition at 0.1 µM (SYK) of the same compound?
A: -1%

Q: What about the inhibition at 0.1 µM (PHKG1) of the same compound?
A: 8%

Q: What about the inhibition at 0.1 µM (MYLK2) of the same compound?
A: 23%

Q: And the inhibition at 0.1 µM (CDC42BPA)?
A: 15%

Q: What about the inhibition at 0.1 µM (DYRK1A) of the same compound?
A: 7%

Q: What about the inhibition at 0.1 µM (EGFR_L861Q) of the same compound?
A: 15%

Q: And the inhibition at 0.1 µM (PRKCB1_I)?
A: 7%

Q: What about the inhibition at 0.1 µM (PBK) of the same compound?
A: 19%

Q: And the inhibition at 0.1 µM (EPHA4)?
A: -2%

Q: And the inhibition at 0.1 µM (NUAK2)?
A: 9%

Q: And the inhibition at 0.1 µM (TYRO3)?
A: 5%

Q: What about the inhibition at 0.1 µM (EGFR_L747-E749del_A750P) of the same compound?
A: 2%

Q: And the inhibition at 0.1 µM (FLT4)?
A: 44%

Q: What about the inhibition at 0.1 µM (PRKCI) of the same compound?
A: 11%

Q: What about the inhibition at 0.1 µM (EPHA7) of the same compound?
A: 23%

Q: And the inhibition at 0.1 µM (TNK2)?
A: 17%

Q: What about the inhibition at 0.1 µM (TEK_Y1108F) of the same compound?
A: -27%

Q: What about the inhibition at 0.1 µM (KIT_T670I) of the same compound?
A: 9%

Q: What about the inhibition at 0.1 µM (MST1R) of the same compound?
A: -3%

Q: And the inhibition at 0.1 µM (MAPKAPK3)?
A: -1%

Q: How did the inhibition at 0.1 µM (CDK8_cyclinC) turn out when `Cc1cc2cc(c1)-c1cnn3ccc(nc13)NCCNC(=O)CCN(C)C2` [OD52] was run?
A: 44%

Q: What about the inhibition at 0.1 µM (PRKX) of the same compound?
A: 34%

Q: And the inhibition at 0.1 µM (CSNK1G1)?
A: 16%

Q: What about the inhibition at 0.1 µM (SLK) of the same compound?
A: 10%

Q: What about the inhibition at 0.1 µM (DYRK2) of the same compound?
A: 9%

Q: And the inhibition at 0.1 µM (MAP2K2)?
A: 7%

Q: What about the inhibition at 0.1 µM (DDR2) of the same compound?
A: 6%

Q: And the inhibition at 0.1 µM (FYN)?
A: 6%

Q: What about the inhibition at 0.1 µM (STK17A) of the same compound?
A: 4%

Q: And the inhibition at 0.1 µM (PIM2)?
A: 4%

Q: And the inhibition at 0.1 µM (ITK)?
A: 3%

Q: And the inhibition at 0.1 µM (PDGFRB)?
A: 3%

Q: And the inhibition at 0.1 µM (CLK2)?
A: 1%

Q: And the inhibition at 0.1 µM (GSK3A)?
A: 1%

Q: What about the inhibition at 0.1 µM (GCK) of the same compound?
A: 1%

Q: And the inhibition at 0.1 µM (MAPK3)?
A: 1%

Q: What about the inhibition at 0.1 µM (ROCK1) of the same compound?
A: 1%

Q: And the inhibition at 0.1 µM (CDK2_cyclinA2)?
A: 0%

Q: What about the inhibition at 0.1 µM (TEC) of the same compound?
A: 0%

Q: And the inhibition at 0.1 µM (MET_Y1230A)?
A: -1%

Q: What about the inhibition at 0.1 µM (SIK2) of the same compound?
A: -1%

Q: What about the inhibition at 0.1 µM (MARK3) of the same compound?
A: -1%

Q: And the inhibition at 0.1 µM (EPHA5)?
A: -1%

Q: And the inhibition at 0.1 µM (SYK)?
A: -2%

Q: What about the inhibition at 0.1 µM (PHKG1) of the same compound?
A: -4%

Q: And the inhibition at 0.1 µM (MYLK2)?
A: -4%

Q: What about the inhibition at 0.1 µM (CDC42BPA) of the same compound?
A: -4%

Q: And the inhibition at 0.1 µM (DYRK1A)?
A: -4%

Q: What about the inhibition at 0.1 µM (EGFR_L861Q) of the same compound?
A: -4%

Q: And the inhibition at 0.1 µM (PRKCB1_I)?
A: -5%

Q: What about the inhibition at 0.1 µM (PBK) of the same compound?
A: -5%

Q: What about the inhibition at 0.1 µM (EPHA4) of the same compound?
A: -7%

Q: What about the inhibition at 0.1 µM (NUAK2) of the same compound?
A: -7%

Q: And the inhibition at 0.1 µM (TYRO3)?
A: -7%

Q: What about the inhibition at 0.1 µM (EGFR_L747-E749del_A750P) of the same compound?
A: -9%

Q: What about the inhibition at 0.1 µM (FLT4) of the same compound?
A: -13%

Q: What about the inhibition at 0.1 µM (PRKCI) of the same compound?
A: -17%

Q: What about the inhibition at 0.1 µM (EPHA7) of the same compound?
A: -18%

Q: And the inhibition at 0.1 µM (TNK2)?
A: -20%

Q: And the inhibition at 0.1 µM (TEK_Y1108F)?
A: -21%

Q: And the inhibition at 0.1 µM (KIT_T670I)?
A: -23%

Q: What about the inhibition at 0.1 µM (MST1R) of the same compound?
A: -24%

Q: And the inhibition at 0.1 µM (MAPKAPK3)?
A: -25%
